From ChEMBL document CHEMBL1201862, “PubChem BioAssay data set” (2004)
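All cell lines were grown in 96-well plates and treated with compound for 48 hours. The concentration for 50% growth inhibition is given as GI50.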 Active and inactive are the calls of the source. Rule as the data show it: active = GI50 up to about 1.1 µM and inactive = higher.

How the values were obtained:
Assay in all cases: DTP human tumour cell line panel, 48 h
A549 = test system: A549
ACHN = test system: ACHN
CCRF-CEM = test system: CCRF-CEM
HCT-116 = test system: HCT-116
HT-29 = test system: HT-29
KM12 = test system: KM12
LOX IMVI = test system: LOX IMVI
M14 = test system: M14
NCI-H226 = test system: NCI-H226
NCI-H522 = test system: NCI-H522
RPMI-8226 = test system: RPMI-8226
SF-539 = test system: SF-539
SK-OV-3 = test system: SK-OV-3
SNB-19 = test system: SNB-19
SNB-75 = test system: SNB-75
SW-620 = test system: SW-620
U-251 = test system: U-251
UACC-62 = test system: UACC-62
COLO 205 = test system: COLO 205
EKVX = test system: EKVX

| Compound | GI50 (A549) | GI50 (ACHN) | GI50 (CCRF-CEM) | GI50 (HCT-116) | GI50 (HT-29) | GI50 (KM12) | GI50 (LOX IMVI) | GI50 (M14) | GI50 (NCI-H226) | GI50 (NCI-H522) | GI50 (RPMI-8226) | GI50 (SF-539) | GI50 (SK-OV-3) | GI50 (SNB-19) | GI50 (SNB-75) | GI50 (SW-620) | GI50 (U-251) | GI50 (UACC-62) | GI50 (COLO 205) | GI50 (EKVX) |
| --- | --- | --- | --- | --- | --- | --- | --- | --- | --- | --- | --- | --- | --- | --- | --- | --- | --- | --- | --- | --- |
| C=C1c2[nH]c3ccccc3c2CC(C(=O)O)N1C(O)c1ccc(S(=O)(=O)O)cc1 (stereo not given) | > 100 µM (inactive) | > 100 µM (inactive) | > 100 µM (inactive) | > 100 µM (inactive) | > 100 µM (inactive) | > 100 µM (inactive) | > 100 µM (inactive) | > 100 µM (inactive) | 42.9 µM (inactive) | > 100 µM (inactive) | > 100 µM (inactive) | > 100 µM (inactive) | > 100 µM (inactive) | > 100 µM (inactive) | 65.6 µM (inactive) | > 100 µM (inactive) | > 100 µM (inactive) | > 100 µM (inactive) | – | – |
| Nc1nc(=O)n(C2OC(CO)C(O)C2O)c2ncc(-c3ccc(-c4ccccc4)cc3)nc12 (stereo not given) | > 100 µM (inactive) | > 100 µM (inactive) | 9.62 µM (inactive) | > 100 µM (inactive) | > 100 µM (inactive) | > 100 µM (inactive) | 83.2 µM (inactive) | – | 24.1 µM (inactive) | > 100 µM (inactive) | > 100 µM (inactive) | > 100 µM (inactive) | > 100 µM (inactive) | 82.2 µM (inactive) | 28.4 µM (inactive) | > 100 µM (inactive) | 31.3 µM (inactive) | 66.4 µM (inactive) | > 100 µM (inactive) | 94.8 µM (inactive) |
| CCOC(=O)C1(C/C=C/CCl)CCCC1=O (stereo not given) | 21.5 µM (inactive) | 15.3 µM (inactive) | 19.5 µM (inactive) | 17.2 µM (inactive) | 24.2 µM (inactive) | 20 µM (inactive) | 14.9 µM (inactive) | 18.1 µM (inactive) | 14.3 µM (inactive) | 23.7 µM (inactive) | – | 20.7 µM (inactive) | 33.3 µM (inactive) | 23 µM (inactive) | 19.8 µM (inactive) | 20.3 µM (inactive) | 24.5 µM (inactive) | 14.1 µM (inactive) | 26 µM (inactive) | 19.5 µM (inactive) |
| COC(=O)c1ccccc1NC(=S)NN(C)C | > 100 µM (inactive) | > 100 µM (inactive) | > 100 µM (inactive) | > 100 µM (inactive) | – | > 100 µM (inactive) | > 100 µM (inactive) | > 100 µM (inactive) | > 100 µM (inactive) | > 100 µM (inactive) | > 100 µM (inactive) | > 100 µM (inactive) | > 100 µM (inactive) | > 100 µM (inactive) | 28.6 µM (inactive) | > 100 µM (inactive) | > 100 µM (inactive) | > 100 µM (inactive) | > 100 µM (inactive) | > 100 µM (inactive) |
| [N-]=[N+]=NC(c1cn(C2CC(O)C(CO)O2)c(=O)[nH]c1=O)C(Cl)Br (stereo not given) | > 100 µM (inactive) | > 100 µM (inactive) | 50.8 µM (inactive) | > 100 µM (inactive) | > 100 µM (inactive) | > 100 µM (inactive) | > 100 µM (inactive) | – | > 100 µM (inactive) | > 100 µM (inactive) | > 100 µM (inactive) | > 100 µM (inactive) | – | > 100 µM (inactive) | > 100 µM (inactive) | > 100 µM (inactive) | > 100 µM (inactive) | – | > 100 µM (inactive) | > 100 µM (inactive) |
| COc1ccc(C2CCc3c(cnc4nc(N)nc(N)c34)C2)cc1 (stereo not given) | 6.43 µM (inactive) | 8.28 µM (inactive) | – | 1.73 µM (inactive) | 4.69 µM (inactive) | > 100 µM (inactive) | 0.968 µM (active) | 1.49 µM (inactive) | > 100 µM (inactive) | 13.6 µM (inactive) | > 100 µM (inactive) | 26.5 µM (inactive) | 18.1 µM (inactive) | 33.7 µM (inactive) | 10.3 µM (inactive) | 5.25 µM (inactive) | 9.29 µM (inactive) | 3.35 µM (inactive) | > 100 µM (inactive) | 73.6 µM (inactive) |
| CC(C)C1COC(c2cccc(C3=N[C@@H](C(C)C)CO3)n2)=N1 (stereo not given in full) | > 100 µM (inactive) | > 100 µM (inactive) | > 100 µM (inactive) | > 100 µM (inactive) | > 100 µM (inactive) | > 100 µM (inactive) | > 100 µM (inactive) | > 100 µM (inactive) | > 100 µM (inactive) | > 100 µM (inactive) | > 100 µM (inactive) | > 100 µM (inactive) | > 100 µM (inactive) | > 100 µM (inactive) | > 100 µM (inactive) | > 100 µM (inactive) | 59.3 µM (inactive) | – | > 100 µM (inactive) | > 100 µM (inactive) |
